According to patent publication US6821980B1, “Substituted 5-benzyl-2,4-diaminopyrimidines” (Basilea Pharmaceutica AG, priority 1999, dated 2004):
Converted amounts (≈) assume the structure as drawn. Read-outs that look alike come from different tables or passages of the source.

Experiments:
[1] = system: Streptococcus pneumoniae 1/1; experiment: MIC against Streptococcus pneumoniae 1/1; assay type: cell-based; conditions: Streptococcus pneumoniae 1/1, trimethoprim- and penicillin-resistant, serotype 6, clinical isolate; for MIC: read-out: MIC Sp1/1
[2] = biological target: purified DHFR of strain 157/4696 of Staphylococcus aureus (Staphylococcus aureus, UniProt P13955); experiment: biochemical
[3] = biological target: T1, purified DHFR of strain Sp1/1 of Streptococcus pneumoniae (Streptococcus pneumoniae serotype 4, UniProt Q54801); assay type: biochemical; conditions: IC50 against purified DHFR of strain Sp1/1
T1 sequence (Q54801 1-168 I100L): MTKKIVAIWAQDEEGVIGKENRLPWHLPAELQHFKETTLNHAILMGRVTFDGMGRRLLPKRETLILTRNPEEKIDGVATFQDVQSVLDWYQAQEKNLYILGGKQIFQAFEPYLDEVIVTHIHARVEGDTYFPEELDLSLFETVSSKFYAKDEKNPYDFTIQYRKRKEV

[4] = system: Staphylococcus aureus 101; experiment: MIC against Staphylococcus aureus 101; assay type: cell-based; conditions: Staphylococcus aureus 101, MRSA- and trimethoprim-resistant, clinical isolate; for MIC: read-out: MIC Sa101

Chain of purified DHFR of strain 157/4696 of Staphylococcus aureus (P13955 whole entry): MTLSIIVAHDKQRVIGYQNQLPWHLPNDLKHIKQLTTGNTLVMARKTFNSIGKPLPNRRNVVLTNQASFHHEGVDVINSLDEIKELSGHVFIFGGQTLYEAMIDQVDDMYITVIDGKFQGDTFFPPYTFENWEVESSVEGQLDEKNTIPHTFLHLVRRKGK

`CCOc1cc(Cc2cnc(N)nc2N)cc(OCC)c1-c1ccc(OC)c(C)c1` [Example 02-n, 5-(2,6-Diethoxy-4′-methoxy-3′-metyl-biphenyl-4-ylmethyl)-pyrimidine-2,4-diamine] showed an MIC ([1]; Table 2) of 4 µg/mL (≈ 9.79 µM), an IC50 [2] of 1400 nM and an IC50 ([3]; Table 2) of 110 nM. It also gave an MIC ([4]; Table 2) of 8 µg/mL (≈ 19.6 µM).
For `CCOc1cc(Cc2cnc(N)nc2N)cc(OCC)c1-c1ccc(C)cc1` [Example 02-q, 5-(2,6-Diethoxy-4′-methyl-biphenyl-4-ylmethyl)-pyrimidine-2,4-diamine], the MIC ([1]; Table 2) was 8 µg/mL (≈ 21.1 µM), the IC50 [2] was 1100 nM and the IC50 ([3]; Table 2) was 79 nM. The MIC ([4]; Table 2) was 4 µg/mL (≈ 10.6 µM).
For `CCOc1cc(Cc2cnc(N)nc2N)cc(OS(=O)(=O)N(C)C2CC2)c1-c1ccc(N)c(F)c1` [Example 28-c, N-Cyclopropyl-N-methyl-sulphamic acid 4′-amino-4-(2,4-diamino-pvrimidin-5-ylmethyl)-6-ethoxy-3′-fluoro-biphenyl-2-yl ester], the MIC ([1]; Table 2) was 1 µg/mL (≈ 1.99 µM), the IC50 [2] was 240 nM and the IC50 ([3]; Table 2) was 18 nM. For the same molecule, the MIC ([4]; Table 2) was 2 µg/mL (≈ 3.98 µM).
For `CCOc1cc(Cc2cnc(N)nc2N)cc(OS(=O)(=O)CC(C)(C)C)c1-c1cccc(N)c1` [Example 14-i, 2,2-Dimethyl-propane-1-sulphonic acid 3′-amino-4-(2,4-diamino-pyrimidin-5-ylmethyl)-6-ethoxy-biphenyl-2-yl ester], the MIC ([1]; Table 2) was 0.5 µg/mL (≈ 1.03 µM), the IC50 [2] was 220 nM and the IC50 ([3]; Table 2) was 5.4 nM. The MIC ([4]; Table 2) was 8 µg/mL (≈ 16.5 µM).
`CCOc1cc(Cc2cnc(N)nc2N)cc(OCCC2CC2)c1-c1ccc(O)cc1` [Example 08-l, 2′-(2-Cydopropyl-ethoxy)-4′-(2,4-diamino-pyrimidin-5-ylmethyl)-6′-ethoxy-biphenyl-4-ol] gave an MIC ([1]; Table 2) of 8 µg/mL (≈ 19 µM), an IC50 [2] of 2200 nM and an IC50 ([3]; Table 2) of 58 nM. For the same molecule, the MIC ([4]; Table 2) was 4 µg/mL (≈ 9.51 µM).
`CCOc1cc(Cc2cnc(N)nc2N)cc(OS(=O)(=O)C(C)C)c1-c1ccc(CN(C)C)c(N)c1` [Example 33-f, Propane-2-sulphonic acid 3′-amino-4-(2,4-diamino-pyrimidin-5-ylmethyl)-6-ethoxy-4′-dimethylaminomethyl-biphenyl-2-yl ester] was tested, and the MIC ([1]; Table 2) was 8 µg/mL (≈ 15.5 µM), the IC50 [2] was 42 nM and the IC50 ([3]; Table 2) was 89 nM. The MIC ([4]; Table 2) was 2 µg/mL (≈ 3.89 µM).
In the case of `CCOc1cc(Cc2cnc(N)nc2N)cc(OS(=O)(=O)N(C)C)c1-c1cc(N)cc(F)c1` [Example 29-b, Dimethylsulphamic acid 3′-amino-4-(2,4-diamino-pyrimidin-5-ylmethyl)-6-ethoxy-5′-fluoro-biphenyl-2-yl ester], the MIC ([1]; Table 2) is reported as 2 µg/mL (≈ 4.2 µM), the IC50 [2] is reported as 95 nM and the IC50 ([3]; Table 2) is reported as 14 nM. It also gave an MIC ([4]; Table 2) of 2 µg/mL (≈ 4.2 µM).
`CCOc1cc(Cc2cnc(N)nc2N)cc(OCC)c1-c1ccc([S+](C)[O-])cc1` (racemic) [Example 02-j, (RS)-5-(2,6-Diethoxy-4′-methanesulphinyl-biphenyl-4-ylmetyl)-pyrimidine-2,4-diamine] was tested, and the MIC ([1]; Table 2) was 4 µg/mL (≈ 9.38 µM), the IC50 [2] was 1700 nM and the IC50 ([3]; Table 2) was 72 nM. The MIC ([4]; Table 2) was 8 µg/mL (≈ 18.8 µM).
`CCOc1cc(Cc2cnc(N)nc2N)cc(OS(=O)(=O)CC2CC2)c1-c1cccc(N)c1` [Example 38-a, Cyclopropylmethane-sulphonic acid 3′-amino-4-(2,4-diamino-pyrimidin-5-ylmethyl)-6ethoxy-biphenyl-2-yl ester] showed an MIC ([1]; Table 2) of 1 µg/mL (≈ 2.13 µM), an IC50 [2] of 160 nM and an IC50 ([3]; Table 2) of 5.2 nM. It also gave an MIC ([4]; Table 2) of 2 µg/mL (≈ 4.26 µM).
Work on `CCOc1cc(Cc2cnc(N)nc2N)cc(OS(=O)(=O)N(C)C2CC2)c1-c1ccc(NC)cc1` [Example 26-d, N-Cyclopropyl-N-methyl-sulphamic acid 4-(2,4-diamino-pyrimidin-5-ylmethyl)-6-ethoxy-4′-methylamino-biphenyl-2-yl ester] yielded an MIC ([1]; Table 2) of 1 µg/mL (≈ 2.01 µM), an IC50 [2] of 140 nM and an IC50 ([3]; Table 2) of 5.1 nM. The MIC ([4]; Table 2) was 1 µg/mL (≈ 2.01 µM).
`CCOc1cc(Cc2cnc(N)nc2N)cc(OCC)c1-c1ccc(OS(C)(=O)=O)cc1` [Example 45-, Methanesulphonic acid 4′-(2,4-diamino-pyrimidin-5-ylmethyl)-2′,6′-diethoxy-biphenyl-4-yl ester] showed an MIC ([1]; Table 2) of 4 µg/mL (≈ 8.72 µM), an IC50 [2] of 2400 nM and an IC50 ([3]; Table 2) of 130 nM. For the same molecule, the MIC ([4]; Table 2) was 8 µg/mL (≈ 17.4 µM).
“5-[4′-Amino-2-[(2-tetrahydropyran-4-yl)-ethoxy]-6-ethoxy-4′-methyl-biphenyl-4-ylmethyl]-pyrimidine-2,4-diamine [Example 11-b]” was tested, and the “MIC Sp1/1” value ([1]; Table 2) was 1 µg/mL, the IC50 ([2]; Table 2, IC50 against purified DHFR of strain 157/4696 (highly trimethoprim-resistant; clinical isolate), read-out: DHFR Sa1) was 900 nM and the IC50 ([3]; Table 2) was 9.8 nM. The “MIC Sa101” value ([4]; Table 2) was 8 µg/mL.
For `CCOc1cc(Cc2cnc(N)nc2N)cc(OS(=O)(=O)N(C)C)c1-c1ccccc1` [Example 43-b, Dimethylsulphamic acid 4-(2,4-diamino-pyrimidin-5-ylmethyl)-6-ethoxy-biphenyl-2-yl ester], the MIC ([1]; Table 2) was 1 µg/mL (≈ 2.25 µM), the IC50 [2] was 260 nM and the IC50 ([3]; Table 2) was 9.8 nM. It also gave an MIC ([4]; Table 2) of 1 µg/mL (≈ 2.25 µM).
With `CCOc1cc(Cc2cnc(N)nc2N)cc(OCC2CCC2)c1-c1ccc(O)cc1` [Example 08-i, 2′-Cyclobutylmethoxy-4′-(2,4-diamino-pyrimidin-5-ylmethyl)-6′-ethoxy-biphenyl-4-ol] the MIC ([1]; Table 2) was 4 µg/mL (≈ 9.51 µM), the IC50 [2] was 1000 nM and the IC50 ([3]; Table 2) was 40 nM. The MIC ([4]; Table 2) was 2 µg/mL (≈ 4.76 µM).
`CCOc1cc(Cc2cnc(N)nc2N)cc(OCC2CC2)c1-c1cccc(N)c1` [Example 7a, 5-(3′-Amino-6-cyclopropylmethoxy-2-ethoxy-biphenyl-4-ylmethyl)-pirimidine-2,4-diamine] was tested, and the “MIC Sp1/1” value ([1]; Table 1) was 1 µg/mL (≈ 2.47 µM), the IC50 ([2]; Table 1, IC50 against purified DHFR of strain 157/4696 (highly trimethoprim-resistant; clinical isolate), read-out: DHFR Sa1) was 510 nM and the IC50 ([3]; Table 1) was 2.1 nM. The “MIC Sa101” value ([4]; Table 1) was 8 µg/mL (≈ 19.7 µM).
Molecule `CCOc1cc(Cc2cnc(N)nc2N)cc(OS(=O)(=O)C(C)CC)c1-c1ccc(N)c(F)c1` (centres unmarked) [Example 35-b, Butane-2-sulphonic acid 4′-amino-4-(2,4-diamino-pyrimidin-5-ylmethyl)-6-ethoxy-3′-fluoro-biphenyl-2-yl ester] has an MIC ([1]; Table 2) of 0.5 µg/mL (≈ 1.02 µM), an IC50 [2] of 130 nM and an IC50 ([3]; Table 2) of 9 nM. It also gave an MIC ([4]; Table 2) of 2 µg/mL (≈ 4.09 µM).
For `CCOc1cc(Cc2cnc(N)nc2N)cc(OS(=O)(=O)N(C)C)c1-c1ccc(OC(C)=O)cc1` [Example 62-, 4′-(2,4-Diamino-pyrimidin-5-ylmethyl)-2′-dimethylsulphamoylxy-6′-ethoxy-biphenyl-4-yl acetate], the MIC ([1]; Table 2) was 2 µg/mL, the IC50 [2] was 330 nM and the IC50 ([3]; Table 2) was 7.9 nM. For the same molecule, the MIC ([4]; Table 2) was 2 µg/mL.
Work on `CCOc1cc(Cc2cnc(N)nc2N)cc(OS(=O)(=O)C(C)C)c1-c1ccc(N)c(C)c1` [Example 33e, Propane-2-sulphonic acid 4′-amino-4-(2,4-diamino-pyrimidin-5-ylmethyl)-6-ethoxy-3′-methyl-biphenyl-2-yl ester] yielded an MIC ([1]; Table 1) of 1 µg/mL (≈ 2.12 µM), an IC50 [2] of 200 nM and an IC50 ([3]; Table 1) of 19 nM. The MIC ([4]; Table 1) was 1 µg/mL (≈ 2.12 µM).
`CCCS(=O)(=O)Oc1cc(Cc2cnc(N)nc2N)cc(OCC)c1-c1cccc(N)c1` [Example 14-d] was tested, and the MIC ([1]; Table 2) was 1 µg/mL (≈ 2.19 µM), the IC50 [2] was 82 nM and the IC50 ([3]; Table 2) was 16 nM. For the same molecule, the MIC ([4]; Table 2) was 2 µg/mL (≈ 4.37 µM).
With `CCOc1cc(Cc2cnc(N)nc2N)cc(OC(C)C)c1-c1ccc(O)cc1` [Example 08-m, 4′-(2,4-diamino-pyrimidin-5-ylmethyl)-6′-ethoxy-2′-isopropoxy-biphenyl-4-ol] the MIC ([1]; Table 2) was 4 µg/mL (≈ 10.1 µM), the IC50 [2] was 860 nM and the IC50 ([3]; Table 2) was 65 nM. It also gave an MIC ([4]; Table 2) of 8 µg/mL (≈ 20.3 µM).
In the case of `CCOc1cc(Cc2cnc(N)nc2N)cc(OS(=O)(=O)CC2CCCO2)c1-c1cccc(N)c1` (centres unmarked) [Example 42-a, Tetrahydrofuran-2-yl-methanesulphonic acid 3′-amino-4-(2,4-diamino-pyrimidin-5-ylmethyl)-6-ethoxy-biphenyl-2-yl ester], the MIC ([1]; Table 2) is reported as 2 µg/mL (≈ 4 µM), the IC50 [2] is reported as 250 nM and the IC50 ([3]; Table 2) is reported as 5.7 nM. The MIC ([4]; Table 2) was 8 µg/mL (≈ 16 µM).
`CCOc1cc(Cc2cnc(N)nc2N)cc(OS(=O)(=O)CC2CC2)c1-c1ccc(N)c(C)c1` [Example 38-c, Cyclopropylmethane-sulphonic acid 4′-amino-4-(2,4-diamino-pyrimidin-5-ylmethyl)-6-ethoxg-3′-methyl-biphenyl-2-yl ester] was tested, and the MIC ([1]; Table 2) was 0.5 µg/mL (≈ 1.03 µM), the IC50 [2] was 190 nM and the IC50 ([3]; Table 2) was 5.8 nM. It also gave an MIC ([4]; Table 2) of 2 µg/mL (≈ 4.14 µM).
For `CCOc1cc(Cc2cnc(N)nc2N)cc(OCC)c1-c1ccc(N)cc1` [Example 04-c, 5-(4′-Amino-2,6-diethoxy-biphenyl-4-ylmethyl)-pyrimidine-2 4-diamine], the MIC ([1]; Table 2) was 4 µg/mL (≈ 10.5 µM), the IC50 [2] was 700 nM and the IC50 ([3]; Table 2) was 40 nM. For the same molecule, the MIC ([4]; Table 2) was 8 µg/mL (≈ 21.1 µM).
`CCOc1cc(Cc2cnc(N)nc2N)cc(OS(=O)(=O)CC(C)C)c1-c1cccc(N)c1` [Example 14-h, 2-Methyl-propane-1-sulphonic acid 3′-amino-4-(2,4-diamino-Dyrimidin-5-ylmethyl)-6-ethoxy-biphenyl-2-yl ester] showed an MIC ([1]; Table 2) of 0.5 µg/mL (≈ 1.06 µM), an IC50 [2] of 320 nM and an IC50 ([3]; Table 2) of 4.8 nM. It also gave an MIC ([4]; Table 2) of 2 µg/mL (≈ 4.24 µM).
`CCOc1cc(Cc2cnc(N)nc2N)cc(OCC)c1-c1ccc(F)c(N)c1` [Example 04-n, 5-(3′-Amino-2,6-diethozy-4′-fluoro-biphenyl-4-ylmethyl)-pyrimidine-2,4-diamine] was tested, and the MIC ([1]; Table 2) was 2 µg/mL (≈ 5.03 µM), the IC50 [2] was 1400 nM and the IC50 ([3]; Table 2) was 68 nM. The MIC ([4]; Table 2) was 8 µg/mL (≈ 20.1 µM).
Molecule `CCOc1cc(Cc2cnc(N)nc2N)cc(OCC)c1-c1ccc(N)c(C)c1` [Example 04-f, 5-(4′-Amino-2,6-diethoxy-3′-methyl-biphenyl-4ylmethyl)-pyximidine-2,4-diamine] has an MIC ([1]; Table 2) of 2 µg/mL (≈ 5.08 µM), an IC50 [2] of 1500 nM and an IC50 ([3]; Table 2) of 55 nM. For the same molecule, the MIC ([4]; Table 2) was 4 µg/mL (≈ 10.2 µM).
